Measured values: PubChem BioAssay (NCI)
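A five-concentration, 48-hour dose response in 96-well plates underlies each endpoint, interpolated linearly between surrounding concentrations. TGI: concentration producing complete growth inhibition.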

Assays:
Experiment in all cases: DTP human tumour cell line panel, 48 h
MDA-MB-435 = tested on: MDA-MB-435
SR leukemia = tested on: SR leukemia
HCT-15 colon = tested on: HCT-15 colon
SF-539 CNS = tested on: SF-539 CNS
OVCAR-8 ovarian = tested on: OVCAR-8 ovarian
SNB-75 CNS = tested on: SNB-75 CNS
SNB-19 CNS = tested on: SNB-19 CNS
SK-MEL-2 melanoma = tested on: SK-MEL-2 melanoma
CCRF-CEM leukemia = tested on: CCRF-CEM leukemia
MOLT-4 leukemia = tested on: MOLT-4 leukemia
BT-549 breast = tested on: BT-549 breast
UACC-257 melanoma = tested on: UACC-257 melanoma
ACHN renal = tested on: ACHN renal

O=C(Nc1nncs1)NS(=O)(=O)n1cnc2ccccc21 gave a TGI (MDA-MB-435) of over 100 µM, a TGI (SR leukemia) of over 100 µM and a TGI (HCT-15 colon) of over 100 µM. It also gave a TGI (SF-539 CNS) of over 100 µM, a TGI (OVCAR-8 ovarian) of over 100 µM and a TGI (SNB-75 CNS) of over 100 µM. The TGI (SNB-19 CNS) was over 100 µM, the TGI (SK-MEL-2 melanoma) was over 100 µM and the TGI (CCRF-CEM leukemia) was over 100 µM. The TGI (MOLT-4 leukemia) was over 100 µM, the TGI (BT-549 breast) was over 100 µM and the TGI (UACC-257 melanoma) was over 100 µM. The TGI (ACHN renal) was over 100 µM.
With O=C1NC(N/N=C/c2ccccc2)=N/C1=C\c1cccs1 the TGI (MDA-MB-435) was 34.6 µM, the TGI (SR leukemia) was over 100 µM and the TGI (HCT-15 colon) was 48.5 µM. For the same compound, the TGI (SF-539 CNS) was 26.6 µM, the TGI (OVCAR-8 ovarian) was 29.3 µM and the TGI (SNB-75 CNS) was 51.8 µM. It also gave a TGI (SNB-19 CNS) of over 87.3 µM, a TGI (SK-MEL-2 melanoma) of 20.6 µM and a TGI (CCRF-CEM leukemia) of over 75.8 µM. For the same compound, the TGI (MOLT-4 leukemia) was over 92.3 µM, the TGI (BT-549 breast) was 33.6 µM and the TGI (UACC-257 melanoma) was over 100 µM. The TGI (ACHN renal) was 33.5 µM.
For CC(=O)OCC1OC(n2c3c(cc(C#N)c2=S)CCCCCC3)C(OC(C)=O)C(OC(C)=O)C1OC(C)=O (stereo not drawn), the TGI (MDA-MB-435) was over 100 µM, the TGI (SR leukemia) was over 100 µM and the TGI (HCT-15 colon) was over 100 µM. It also gave a TGI (SF-539 CNS) of over 100 µM, a TGI (OVCAR-8 ovarian) of over 100 µM and a TGI (SNB-75 CNS) of over 100 µM. The TGI (SNB-19 CNS) was over 100 µM, the TGI (SK-MEL-2 melanoma) was over 100 µM and the TGI (CCRF-CEM leukemia) was over 100 µM. It also gave a TGI (MOLT-4 leukemia) of over 100 µM, a TGI (BT-549 breast) of over 100 µM and a TGI (UACC-257 melanoma) of over 100 µM. For the same compound, the TGI (ACHN renal) was over 100 µM.
In the case of Cc1cc(C)nc(NS(=O)(=O)c2ccc(NNC(=O)c3cccc4c(NNc5ccc(S(=O)(=O)Nc6nc(C)cc(C)n6)cc5)c5ccccc5nc34)cc2)n1, the TGI (MDA-MB-435) is reported as 39.4 µM, the TGI (SR leukemia) is reported as 53.1 µM and the TGI (HCT-15 colon) is reported as 36.1 µM. The TGI (SF-539 CNS) was 43.6 µM, the TGI (OVCAR-8 ovarian) was 43.4 µM and the TGI (SNB-75 CNS) was 52.3 µM. It also gave a TGI (SNB-19 CNS) of 72.7 µM, a TGI (SK-MEL-2 melanoma) of 57.5 µM and a TGI (CCRF-CEM leukemia) of 51.2 µM. It also gave a TGI (MOLT-4 leukemia) of 66.8 µM, a TGI (BT-549 breast) of 71.4 µM and a TGI (UACC-257 melanoma) of 71.3 µM. It also gave a TGI (ACHN renal) of 33.3 µM.
OCCCCn1cc(Cn2ncc3c(SCc4ccccc4)ncnc32)nn1 showed a TGI (MDA-MB-435) of over 100 µM, a TGI (SR leukemia) of 85.4 µM and a TGI (HCT-15 colon) of over 100 µM. For the same compound, the TGI (SF-539 CNS) was over 100 µM, the TGI (OVCAR-8 ovarian) was over 100 µM and the TGI (SNB-75 CNS) was over 100 µM. It also gave a TGI (SNB-19 CNS) of over 100 µM, a TGI (SK-MEL-2 melanoma) of over 100 µM and a TGI (CCRF-CEM leukemia) of over 100 µM. For the same compound, the TGI (MOLT-4 leukemia) was 77.3 µM, the TGI (BT-549 breast) was over 100 µM and the TGI (UACC-257 melanoma) was over 100 µM. For the same compound, the TGI (ACHN renal) was over 100 µM.
COc1cc(C=Nc2ccc(S(N)(=O)=O)cc2)cc(OC)c1 gave a TGI (MDA-MB-435) of 49.3 µM, a TGI (SR leukemia) of over 50 µM and a TGI (HCT-15 colon) of over 50 µM. It also gave a TGI (SF-539 CNS) of over 50 µM, a TGI (OVCAR-8 ovarian) of over 50 µM and a TGI (SNB-75 CNS) of over 50 µM. For the same compound, the TGI (SNB-19 CNS) was over 50 µM, the TGI (SK-MEL-2 melanoma) was over 50 µM and the TGI (CCRF-CEM leukemia) was over 50 µM. For the same compound, the TGI (MOLT-4 leukemia) was over 50 µM, the TGI (BT-549 breast) was over 50 µM and the TGI (UACC-257 melanoma) was over 50 µM. It also gave a TGI (ACHN renal) of over 50 µM.
